Laboratory results published in patent US12617771B2, “Diphenylpyrazole compound, and preparation method therefor and application thereof” (NORTHWEST A&F UNIVERSITY, priority 2021, dated 2026).
pIC50: −log10 of the molar value.

Tests used:
[1] = test system: resistant strains of Plutella xylostella; assay: Insecticidal synergistic activity with indoxacarb, leaf dip, resistant strains (Huizhou); type: in vivo; conditions: for Resistance ratio to indoxacarb: 48 hours
Method: Experiment: 95% indoxacarb (Ind) original drug was prepared into mother liquor with a concentration of 50000 mg/L. During the test, 6 treatment solutions with concentrations of 500, 250, 125, 62.5, 31.25 and 15.63 mg/L were prepared. 200 mg/L of the compounds PXG1, PXG2 and PXG22 of the present invention were added to each treatment solution, 200 mg/L of diethyl maleate (DEM) was used as the control synergist, and water was used as another control. The Plutella xylostella (Linnaeus) larvae was collected from a vegetable field in Huizhou city, Guangdong Province. Healthy 3rd instar larvae of the same age were selected for indoor biological activity assay.
Clean wild cabbage leaves were cut into discs with a diameter of 6.5 cm (avoiding main veins). The leaves were soaked in the pesticide solution for 10 seconds, then taken out, dried at 25° C., and placed in a petri dish with a diameter of 6.5 cm. 10 larvae of the resistant strains of Plutella xylostella at the early stage of 3rd instar were placed in each petri dish, which was covered with double-layer absorbent roll paper, and covered by the upper cover of the petri dish. It was placed face up in an incubator at a temperature of 25±1° C., a relative humidity of 65%-70%, and a light ratio (L:D) of 16: 8 h. Each treatment was replicated 4 times with 10 larvae per replicate. […] The test process is strictly in accordance with the standard: NY/T 1154.7-2006.
Experimental data analysis was carried out using practical statistical analysis and its computer processing platform (DPS) (TANG Qiyi et al., 1997). The toxicity regression equation of each agent was established, LC50 value and 95% confidence limit were calculated.

Plutella xylostella GSTs = assay: Inhibition of total GSTs enzyme of Plutella xylostella (CDNB method); type: biochemical
Method: (§1) Experiment: About 50 mg of larvae/nymphs of nine major pests such as Plutella xylostella, Mythimna separata, Pyrausta nubilalis, Chilo suppressalis, Nilaparvata lugens, Spodoptera frugiperda, Helicoverpa armigera, Carposina sasakii, Spodoptera litura were taken, grounded in a mortar pre-cooled at −80° C., and then 1 mL of 100 mM sodium phosphate buffer (1 mM EDTA, pH 7.2) was added and fully homogenized. The homogenate was transferred to a 1.5 mL centrifuge tube at 4° C., and centrifuged at 14,000 g for 30 minutes, and the supernatant was transferred to a new centrifuge tube as the GSTs total enzyme. The protein concentrations of the above total enzymes were determined using the BCA method.
(§2) 100 μL of PBS buffer (100 mM, pH 7.2) containing 1 mM GSH was taken and placed in a 96-well plate, 5 μg of insect total GSTs enzymes and an appropriate concentration of compounds PXG1-PXG29 (29 compounds) of the present invention were added to each well, after uniformly mixing, and allowed to stand at 30° C. for 10 min. Then 100 μL of PBS buffer (100 mM, pH 7.2) containing 1 mM CDNB was added to each well. Immediately after mixing, the mixture was placed in a microplate reader to measure the absorbance at a wavelength of 340 nm (A 340) once every 1 min, the measurement was carried out continuously for 5 min, the light absorption values of each measuring point were recorded and the inhibition rate in vitro of the compounds with different concentrations against insects total GSTs enzymes were calculated. Each group of assays was repeated three times, and total GSTs enzymes inactivated at 100° C. for 5 min were used as negative controls, and GTX was used as positive controls. GraphPad Prism 5 software was used for analysis and calculation of IC50. Relative inhibition was calculated using the following formula:
(§3) [formula] • wherein, A340 is the change of A340 within 5 minutes for the control group, and A340t is the change of A340 within 5 minutes for the experimental group.

Carposina sasakii GSTs = assay: Inhibition of total GSTs enzyme of Carposina sasakii (CDNB method); type: biochemical
Method: as §1, §2, §3

Spodoptera litura GSTs = assay: Inhibition of total GSTs enzyme of Spodoptera litura (CDNB method); type: biochemical
Method: as §1, §2, §3

Mythimna separata GSTs = assay: Inhibition of total GSTs enzyme of Mythimna separata (CDNB method); type: biochemical
Method: as §1, §2, §3

Pyrausta nubilalis GSTs = assay: Inhibition of total GSTs enzyme of Pyrausta nubilalis (CDNB method); type: biochemical
Method: as §1, §2, §3

Chilo suppressalis GSTs = assay: Inhibition of total GSTs enzyme of Chilo suppressalis (CDNB method); type: biochemical
Method: as §1, §2, §3

Nilaparvata lugens GSTs = assay: Inhibition of total GSTs enzyme of Nilaparvata lugens (CDNB method); type: biochemical
Method: as §1, §2, §3

[2] = target: Spodoptera frugiperda GSTs; assay: Inhibition of total GSTs enzyme of Spodoptera frugiperda (CDNB method); type: biochemical
Method: as §1, §2, §3

[3] = target: Helicoverpa armigera GSTs; assay: Inhibition of total GSTs enzyme of Helicoverpa armigera (CDNB method); type: biochemical
Method: as §1, §2, §3

PxGSTδ1 = PxGSTδ1 (Plutella xylostella, UniProt D7URW9); assay: Inhibition of PxGSTδ1 recombinant protein; type: biochemical; conditions: read-out: 100 μM Inhibition rate %
Sequence of PxGSTδ1 (D7URW9 entry or part of it): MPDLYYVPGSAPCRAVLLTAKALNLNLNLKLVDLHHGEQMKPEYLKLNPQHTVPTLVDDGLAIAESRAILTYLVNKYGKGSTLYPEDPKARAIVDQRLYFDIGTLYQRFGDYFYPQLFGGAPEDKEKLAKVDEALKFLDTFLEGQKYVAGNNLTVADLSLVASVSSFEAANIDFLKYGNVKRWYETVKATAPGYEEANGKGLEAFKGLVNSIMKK
Method: (§4) Experiment: 100 μL of PBS buffer (100 mM, pH 7.2) was taken and added to a 96-well plate, 1 μg of PxGSTs recombinant protein and an appropriate concentration of the compounds PXG1-PXG29 of the present invention were added to each well, after uniformly mixing, and allowed to stand at 30° C. for 10 min. Then 100 μL of PBS buffer (100 mM, pH 7.2) containing 1 mM CDNB and 1 mM GSH was successively added to each well. Immediately after mixing, the mixture was placed in a microplate reader to measure the absorbance at a wavelength of 340 nm (A340) once every 1 min, the measurement was continued for 5 min, the light absorption values of each measuring point were recorded and the inhibition rate in vitro of the compounds PXG1-PXG29 of the present invention with different concentrations against PxGSTs recombinant protein were calculated. Each group of assays was repeated three times, and PxGSTs recombinant protein inactivated at 100° C. for 5 min was used as negative control, and GTX was used as positive control. GraphPad Prism 5 software was used for analysis and calculation of IC50. Relative inhibition was calculated using the following formula:
(§5) [formula] • wherein, A340c is the change of A340 […] the control group, an A340t is the change of A340 within 5 minutes for the experimental group.

PxGSTσ1 = PxGSTσ1 (Plutella xylostella, UniProt Q6F436); assay: Inhibition of PxGSTσ1 recombinant protein; type: biochemical; conditions: read-out: 100 μM Inhibition rate %
Sequence of PxGSTσ1 (Q6F436 entry or part of it): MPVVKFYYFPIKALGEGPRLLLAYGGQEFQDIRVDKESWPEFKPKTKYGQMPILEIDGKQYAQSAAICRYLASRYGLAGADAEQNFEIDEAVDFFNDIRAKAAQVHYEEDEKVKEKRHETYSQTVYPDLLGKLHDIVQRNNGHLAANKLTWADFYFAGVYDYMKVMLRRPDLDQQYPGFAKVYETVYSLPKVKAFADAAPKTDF
Method: as §4, §5

PxGSTσ2 = PxGSTσ2 (Plutella xylostella, UniProt Q6F443); assay: Inhibition of PxGSTσ2 recombinant protein; type: biochemical; conditions: read-out: 100 μM Inhibition rate %
Sequence of PxGSTσ2 (Q6F443 entry or part of it): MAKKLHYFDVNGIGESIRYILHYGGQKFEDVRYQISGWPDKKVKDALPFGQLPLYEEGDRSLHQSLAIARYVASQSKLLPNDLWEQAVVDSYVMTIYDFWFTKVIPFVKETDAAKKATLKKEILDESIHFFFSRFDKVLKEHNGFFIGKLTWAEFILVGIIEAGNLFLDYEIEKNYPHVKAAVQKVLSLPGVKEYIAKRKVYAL
Method: as §4, §5

PxGSTε3 = PxGSTε3 (Plutella xylostella, UniProt O77409); assay: Inhibition of PxGSTε3 recombinant protein; type: biochemical; conditions: read-out: 100 μM Inhibition rate %
Sequence of PxGSTε3 (O77409 entry or part of it): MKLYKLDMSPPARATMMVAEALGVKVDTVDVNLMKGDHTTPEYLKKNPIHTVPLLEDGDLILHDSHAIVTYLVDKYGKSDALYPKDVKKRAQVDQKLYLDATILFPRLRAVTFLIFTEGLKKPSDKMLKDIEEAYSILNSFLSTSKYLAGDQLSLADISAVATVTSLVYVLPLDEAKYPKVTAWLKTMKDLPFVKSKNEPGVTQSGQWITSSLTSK
Method: as §4, §5

[4] = indoxacarb alone or with 200 mg/L synergist

Compound | pIC50 (Plutella xylostella GSTs) | 100 μM Inhibition rate % (Plutella xylostella GSTs) | pIC50 (Carposina sasakii GSTs) | 100 μM Inhibition rate % (Carposina sasakii GSTs) | pIC50 (Spodoptera litura GSTs) | 100 μM Inhibition rate % (Spodoptera litura GSTs) | pIC50 (Mythimna separata GSTs) | 100 μM Inhibition rate % (Mythimna separata GSTs) | pIC50 (Pyrausta nubilalis GSTs) | 100 μM Inhibition rate % (Pyrausta nubilalis GSTs) | pIC50 (Chilo suppressalis GSTs) | 100 μM Inhibition rate % (Chilo suppressalis GSTs) | pIC50 (Nilaparvata lugens GSTs) | 100 μM Inhibition rate % (Nilaparvata lugens GSTs) | pIC50 [2] | 100 μM Inhibition rate % [2] | inhibition at 100 µM (PxGSTδ1) | inhibition at 100 µM (PxGSTσ1) | inhibition at 100 µM (PxGSTσ2) | inhibition at 100 µM (PxGSTε3) | other results
COC(=O)N(C(=O)N1CO[C@@]2(C(=O)OC)Cc3cc(Cl)ccc3C2=N1)c1ccc(OC(F)(F)F)cc1 [Ind, Indoxacarb, reference compound] |  |  |  |  |  |  |  |  |  |  |  |  |  |  |  |  |  |  |  |  | LC50 of indoxacarb ([1]; indoxacarb alone or with 200 mg/L synergist, 3rd instar larvae, mortality after 48 hours): 74.72 µg/mL; Resistance ratio to indoxacarb [1, 4]: 143.70
CC1(c2ccccc2)NC(=O)N(NC(=O)c2cc(-c3ccccc3)nn2-c2ccccc2)C1=O (stereo not shown) [PXG12, N-(4-methyl-2,5-dioxo-4-phenylimidazolin-1-yl)-1,3-diphenyl-1H-pyrazol-5-yl-carboxamide] | < 4.00 | 15.08% | < 4.00 | 17.94% | < 4.00 | 4.60% | < 4.00 | 19.42% | < 4.00 | 19.48% | < 4.00 | 29.54% | < 4.00 | −3.30% | < 4.00 | 12.52% | 40.2% | 48.3% | 33.6% | 10.9% | pIC50 [3]: < 4.00; 100 μM Inhibition rate % [3]: −5.00%
CC1(CCc2ccccc2)NC(=O)N(NC(=O)c2cc(-c3ccccc3)nn2-c2ccccc2)C1=O (stereo not shown) [PXG15, N-[4-methyl-2,5-dioxo-4-(2-phenylethyl)imidazolin-1-yl]-1,3-diphenyl-1H-pyrazol-5-yl-carboxamide] | < 4.00 | 16.83% | < 4.00 | 17.01% | < 4.00 | −5.22% | < 4.00 | 4.29% | < 4.00 | 4.69% | < 4.00 | 18.72% | < 4.00 | 2.97% | < 4.00 | 0.41% | 7.86% | 42.5% | 25.6% | 4.62% | pIC50 [3]: < 4.00; 100 μM Inhibition rate % [3]: −1.48%
Cc1csc(CC(=O)NNC(=O)c2cc(-c3ccccc3)nn2-c2ccccc2)n1 [PXG2, N′-[2-(4-methyl-1,3-thiazol-2-yl)acetyl]-1,3-diphenyl-1H-pyrazol-5-yl-carbohydrazide] |  |  |  |  |  |  |  |  |  |  |  |  |  |  |  |  | 87.8% | 25.1% | 14.6% | -4% | LC50 of indoxacarb ([1]; in vivo): 39.93 µg/mL; Resistance ratio to indoxacarb [1, 4]: 76.78
O=C(NN1C(=O)NC2(CCCCC2)C1=O)c1cc(-c2ccccc2)nn1-c1ccccc1 [PXG6] | < 4.00 | 21.15% | < 4.00 | 18.21% | < 4.00 | 6.90% | < 4.00 | 38.85% | < 4.00 | 13.70% | < 4.00 | 15.98% | < 4.00 | −1.46% | < 4.00 | 11.37% | 12.2% | 49.1% | 33.6% | 4.85% | pIC50 [3]: < 4.00; 100 μM Inhibition rate % [3]: 23.21%

The next lines start with results.

pIC50 (Plutella xylostella GSTs) | 100 μM Inhibition rate % (Plutella xylostella GSTs) | pIC50 (Carposina sasakii GSTs) | 100 μM Inhibition rate % (Carposina sasakii GSTs) | pIC50 (Spodoptera litura GSTs) | 100 μM Inhibition rate % (Spodoptera litura GSTs) | pIC50 (Mythimna separata GSTs) | 100 μM Inhibition rate % (Mythimna separata GSTs) | pIC50 (Pyrausta nubilalis GSTs) | 100 μM Inhibition rate % (Pyrausta nubilalis GSTs) | pIC50 (Chilo suppressalis GSTs) | 100 μM Inhibition rate % (Chilo suppressalis GSTs) | pIC50 (Nilaparvata lugens GSTs) | 100 μM Inhibition rate % (Nilaparvata lugens GSTs) | pIC50 [2] | 100 μM Inhibition rate % [2] | inhibition at 100 µM (PxGSTδ1) | inhibition at 100 µM (PxGSTσ1) | inhibition at 100 µM (PxGSTσ2) | inhibition at 100 µM (PxGSTε3) | Compound | other results
< 4.00 | 8.64% | < 4.00 | 6.98% | < 4.00 | −0.15% | < 4.00 | 10.50% | < 4.00 | 0.41% | < 4.00 | 10.53% | < 4.00 | −1.00% | < 4.00 | −1.72% | 5.35% | 70.5% | 39.3% | 4.12% | CC1CCC2(CC1)NC(=O)N(NC(=O)c1cc(-c3ccccc3)nn1-c1ccccc1)C2=O (stereo not shown) [PXG16, N-{8-methyl-2,4-dioxo-1,3-diazaspiro[4.5]dec-3-yl}-1,3-diphenyl-1H-pyrazol-5-yl-carboxamide] | pIC50 [3]: < 4.00; 100 μM Inhibition rate % [3]: 2.28%
< 4.00 | −17.71% | < 4.00 | 32.54% | < 4.00 | 3.87% | < 4.00 | −2.50% | < 4.00 | −3.85% | < 4.00 | 5.85% | < 4.00 | 19.24% | < 4.00 | 20.93% | 91% | 29.4% | 19.2% | 2.03% | COc1ccccc1CC(=O)NNC(=O)c1cc(-c2ccccc2)nn1-c1ccccc1 [PXG10, N′-(1,3-diphenyl-1H-pyrazol-5-yl-carbonyl)-2-(2-methoxyphenyl) acetohydrazide] | pIC50 [3]: < 4.00; 100 μM Inhibition rate % [3]: 9.75%
